Consider 25 compounds from ChEMBL document CHEMBL3046856, “Synthesis and fungicidal activity of novel pimprinine analogues” (2012).

SMILES strings stand for the structures.

Type in all cases: functional
Assay [1] deals with Uromyces viciae-fabae. The assay is described as follows: Fungicidal activity against Uromyces viciae-fabae infected compound pre-treated bean leaf pieces assessed as control of disease or pathogen at 100 ppm measured after 5 to 14 days by leaf-piece assay.
Assay [2] in a line: Fungicidal activity against Zymoseptoria tritici infected on compound pre-treated wheat leaf pieces assessed as control of disease or pathogen at 100 ppm measured after 5 to 14 days by leaf-piece assay.
Assay [3] concerns Pythium dissimile. The assay can be described thus: Fungicidal activity against Pythium dissimile grown on compound supplemented artificial media assessed as control of disease or pathogen at 20 ppm measured after 5 to 14 days by artificial media assay.
Assay [4] has as its system Alternaria solani. The assay can be described thus: Fungicidal activity against Alternaria solani grown on compound supplemented artificial media assessed as control of disease or pathogen at 2 ppm measured after 5 to 14 days by artificial media assay.
Assay [5] has as its system Pythium dissimile. The assay is described as follows: Fungicidal activity against Pythium dissimile grown on compound supplemented artificial media assessed as control of disease or pathogen at 2 ppm measured after 5 to 14 days by artificial media assay.
In assay [6] the test system is Botrytis cinerea. The assay is described as follows: Fungicidal activity against Botryotinia fuckeliana grown on compound supplemented artificial media assessed as control of disease or pathogen at 2 ppm measured after 5 to 14 days by artificial media assay.
In assay [7] the test system is Botrytis cinerea. The assay can be described thus: Fungicidal activity against Botryotinia fuckeliana grown on compound supplemented artificial media assessed as control of disease or pathogen at 20 ppm measured after 5 to 14 days by artificial media assay.
Assay [8] relates to Alternaria solani. The assay is described as follows: Fungicidal activity against Alternaria solani grown on compound supplemented artificial media assessed as control of disease or pathogen at 20 ppm measured after 5 to 14 days by artificial media assay.

In the case of `CCS(=O)(=O)n1cc(-c2ocnc2Cl)c2ccccc21`, the Activity in assay [1] was found to be 55%; in assay [2], 0%; in assay [3], 27%; in assay [4], 0%; in assay [5], 0%; in assay [6], 0%. Further, the Activity in assay [7] and in assay [8] was 0% throughout.

For the compound `CCOC(=O)Cn1cc(-c2ocnc2Cl)c2ccccc21`, the Activity in assay [1], in assay [2], in assay [3], in assay [4], in assay [5] and in assay [6] was 0% throughout. In addition, the Activity in assay [7] and in assay [8] was 0% throughout.

For the compound `ClC(Cl)=CCn1cc(-c2ocnc2Br)c2ccccc21`, the Activity in assay [1], in assay [2], in assay [3], in assay [4], in assay [5] and in assay [6] was 0% each time. For the same compound, the Activity in assay [7] and in assay [8] was 0% in each case.

Regarding `C=CCn1cc(-c2ocnc2Cl)c2ccccc21`, the Activity in assay [1] was 99%; in assay [2], 0%; in assay [3], 0%; in assay [4] it was 0%; in assay [5], 0%; in assay [6], 0%. The Activity in assay [7] and in assay [8] was 0% each time.

On to `Clc1ncoc1-c1cn(CC2CO2)c2ccccc12` (stereo unspecified), for which the Activity in assay [1] is 77%; in assay [2], 0%; in assay [3], 0%; in assay [4], 0%; in assay [5], 0%; in assay [6], 0%. The Activity in assay [7] and in assay [8] was 0% each time.

Regarding `CCOC(=O)C(=O)n1cc(-c2ocnc2Cl)c2ccccc21`, the Activity in assay [1] was 0%; in assay [2], 33%; in assay [3] it was 77%; in assay [4] it was 0%; in assay [5] it was 0%; in assay [6], 0%. Also, the Activity in assay [7] and in assay [8] was 99% throughout.

As for `Brc1ncoc1-c1c[nH]c2ccccc12`, the Activity in assay [1] came to 77%; in assay [2], 0%; in assay [3] it was 99%; in assay [4] it was 0%; in assay [5], 0%; in assay [6], 0%. For the same compound, the Activity in assay [7] and in assay [8] was 99% in each case.

With `COCC(=O)n1cc(-c2ocnc2Cl)c2ccccc21`, the Activity in assay [1] is listed as 55%; in assay [2] it was 0%; in assay [3], 55%; in assay [4], 0%; in assay [5], 0%; in assay [6] it was 0%. Also, the figures for the Activity in assay [7] and in assay [8] were 77% and 99%, respectively.

Consider `CCC(=O)n1cc(-c2ocnc2Cl)c2ccccc21`, for which the Activity in assay [1], in assay [2], in assay [3], in assay [4], in assay [5] and in assay [6] was 0% each time. The Activity in assay [7] and in assay [8] was 0% each time.

Consider `COC(=O)n1cc(-c2ocnc2Br)c2ccccc21`, for which the Activity in assay [1], in assay [2], in assay [3], in assay [4], in assay [5] and in assay [8] was 0% in each case.

For `Fc1ccc(Cn2cc(-c3ocnc3Cl)c3ccccc32)c(F)c1`, the Activity was determined as 27% in assay [1]; 0% in assay [2]; 0% in assay [3]; 0% in assay [4]; 0% in assay [5]; 0% in assay [6]. Moreover, the Activity in assay [7] and in assay [8] was 0% each time.

Take `CC(Cl)C(=O)n1cc(-c2ocnc2Br)c2ccccc21` (stereo unspecified): the Activity in assay [1] is recorded as 27%; in assay [2] it was 0%; in assay [3] it was 0%; in assay [4], 0%; in assay [5], 0%; in assay [6], 0%. The Activity in assay [7] is reported as 0%; in assay [8] it was 55%.

As for `C=CCn1cc(-c2ocnc2Br)c2ccccc21`, the Activity in assay [1] was found to be 49%; in assay [2] it was 18%; in assay [3] it was 0%; in assay [4], 0%; in assay [5], 0%; in assay [6], 0%. Also, the Activity in assay [7] is given as 27%; in assay [8], 0%.

As for `O=C(n1cc(-c2ocnc2Cl)c2ccccc21)C(Cl)(Cl)Cl`, the Activity in assay [1] amounted to 55%; in assay [2], 0%; in assay [3], 99%; in assay [4], 0%; in assay [5], 0%; in assay [6] it was 0%. The Activity in assay [7] and in assay [8] was 99% each time.

Consider `Brc1ncoc1-c1cn(CC2CC2)c2ccccc12`, for which the Activity in assay [1] was found to be 0%; in assay [2], 0%; in assay [3], 55%; in assay [4], 0%; in assay [5], 0%; in assay [6], 0%. Further, the Activity in assay [7] and in assay [8] was 0% in each case.

For `O=C(CCl)n1cc(-c2ocnc2Cl)c2ccccc21`, the Activity in assay [1] worked out at 49%; in assay [2], 0%; in assay [3] it was 99%; in assay [4], 0%; in assay [5], 0%; in assay [6], 0%. Moreover, the Activity in assay [7] worked out at 99%; in assay [8] it was 55%.

Regarding `CC(=O)n1cc(-c2ocnc2Cl)c2ccccc21`, the Activity in assay [1], in assay [2], in assay [3], in assay [4], in assay [5] and in assay [6] was 0% each time. Also, the Activity in assay [7] and in assay [8] was 0% each time.

As to `Clc1ncoc1-c1c[nH]c2ccccc12` [Streptochlorin], the Activity in assay [1] came out at 55%; in assay [2] it was 36%; in assay [3], 99%; in assay [4], 99%; in assay [5], 0%; in assay [6] it was 0%. Moreover, the Activity in assay [7] and in assay [8] was 99% in each case.

As to `CCn1cc(-c2ocnc2Br)c2ccccc21`, the Activity in assay [1] was 99%; in assay [2], 0%; in assay [3] it was 55%; in assay [4], 0%; in assay [5], 49%; in assay [6], 0%. For the same compound, the Activity in assay [7] was 0%; in assay [8] it was 55%.

In the case of `CCS(=O)(=O)n1cc(-c2ocnc2Br)c2ccccc21`, the Activity in assay [1], in assay [2], in assay [3], in assay [4], in assay [5] and in assay [6] was 0% throughout. Moreover, the Activity in assay [7] and in assay [8] was 0% in each case.

Turning to `c1ccc2c(-c3cnco3)c[nH]c2c1`, the Activity was found to be 0% in assay [1]; 0% in assay [2]; 99% in assay [3]; 0% in assay [4]; 0% in assay [5]; 0% in assay [6]. In addition, the values for the Activity in assay [7] and in assay [8] were 0% and 77%, respectively.

As to `CC(Cl)C(=O)n1cc(-c2ocnc2Cl)c2ccccc21` (stereo unspecified), the Activity in assay [1] is 55%; in assay [2] it was 0%; in assay [3], 0%; in assay [4] it was 0%; in assay [5], 0%; in assay [6] it was 0%. Further, the Activity in assay [7] came out at 0%; in assay [8] it was 55%.

Consider `COC(=O)n1cc(-c2ocnc2Cl)c2ccccc21`, for which the Activity in assay [1], in assay [2], in assay [3], in assay [4], in assay [5] and in assay [8] was 0% in each case.

Regarding `Cn1cc(-c2ocnc2Cl)c2ccccc21`, the Activity in assay [1] is on record as 77%; in assay [2], 0%; in assay [3], 0%; in assay [4], 0%; in assay [5] it was 0%; in assay [6] it was 0%. For the same compound, the Activity in assay [7] and in assay [8] was 0% in each case.

For the compound `CC(=O)n1cc(-c2ocnc2Br)c2ccccc21`, the Activity in assay [1], in assay [2], in assay [3], in assay [4], in assay [5] and in assay [6] was 0% each time. For the same compound, the Activity in assay [7] and in assay [8] was 0% in each case.
